The values that follow come from PubChem BioAssay (NCI).

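48-hour exposure; five concentrations; linearly interpolated endpoints. GI50 marks 50% less growth. TGI denotes the concentration required for complete inhibition of growth.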

Among the test systems are ACHN renal; OVCAR-5 ovarian; RPMI-8226 leukemia; KM12 colon; OVCAR-4 ovarian; MALME-3M melanoma; UACC-62 melanoma; LOX IMVI melanoma; K-562 leukemia; HOP-62 NSCLC.
Assay in all cases: growth of human tumour cells (NCI), 48 h

`COc1ccccc1-c1ccc2nc(NC(=O)Nc3cc(C(F)(F)F)cc(C(F)(F)F)c3)sc2c1`: the GI50 is 2.14 µM with ACHN renal; 2.54 µM in the experiment with OVCAR-5 ovarian; 1.63 µM in the experiment with RPMI-8226 leukemia; 2.07 µM in the experiment with KM12 colon; 2.12 µM in the experiment on OVCAR-4 ovarian; 1.81 µM with MALME-3M melanoma. Moreover, the GI50 is 1.56 µM in the experiment with UACC-62 melanoma, 1.68 µM with LOX IMVI melanoma, 1.54 µM in the experiment on K-562 leukemia and 2.1 µM with HOP-62 NSCLC. For the same compound, the TGI in the experiment with ACHN renal worked out at 7.71 µM; in the experiment on OVCAR-5 ovarian it was 9.66 µM; in the experiment on RPMI-8226 leukemia, 5.76 µM; in the experiment with KM12 colon it was 6.45 µM; with OVCAR-4 ovarian it was 9.96 µM; in the experiment with MALME-3M melanoma, 4.29 µM. For the same compound, the TGI was 3.26 µM in the experiment with UACC-62 melanoma, 3.13 µM in the experiment on LOX IMVI melanoma, 8.95 µM in the experiment with K-562 leukemia and 4.99 µM in the experiment with HOP-62 NSCLC.
Turning to `O=C1OCC2=C1C(c1cccc(C(F)(F)F)c1)c1cc3c(cc1N2CCO)OCO3` (configuration not stated), the GI50 in the experiment on ACHN renal is 3.09 µM; in the experiment on OVCAR-5 ovarian, 2.19 µM; with RPMI-8226 leukemia, 1.79 µM; in the experiment with KM12 colon, 1.88 µM; with OVCAR-4 ovarian, 2.49 µM; in the experiment on MALME-3M melanoma, 2.67 µM. For the same compound, the GI50 in the experiment on UACC-62 melanoma was 1.14 µM; in the experiment on LOX IMVI melanoma, 2.02 µM; with K-562 leukemia, 0.273 µM; with HOP-62 NSCLC, 1.97 µM. For the same compound, the TGI with ACHN renal, in the experiment with OVCAR-5 ovarian, in the experiment with RPMI-8226 leukemia, with KM12 colon, in the experiment on OVCAR-4 ovarian and in the experiment with MALME-3M melanoma was greater than 50 µM each time. Also, the TGI in the experiment on UACC-62 melanoma, with LOX IMVI melanoma, with K-562 leukemia and in the experiment on HOP-62 NSCLC was greater than 50 µM in each case.
As for `Nc1c(S(=O)(=O)O)cc(Nc2cccc(S(N)(=O)=O)c2)c2c1C(=O)c1ccccc1C2=O`, the TGI in the experiment on ACHN renal was greater than 100 µM; in the experiment with OVCAR-5 ovarian, greater than 100 µM; in the experiment with RPMI-8226 leukemia, greater than 100 µM; with KM12 colon, greater than 100 µM; with OVCAR-4 ovarian it was greater than 100 µM; in the experiment on MALME-3M melanoma, 87.9 µM. Besides, the TGI in the experiment on UACC-62 melanoma is 58.7 µM; in the experiment with LOX IMVI melanoma, greater than 100 µM; with K-562 leukemia, greater than 100 µM; in the experiment with HOP-62 NSCLC, 71.9 µM.
As for `Cc1cc2c(=O)cc(-c3ccc(C(F)(F)F)cc3)oc2c(C(=O)O)c1C`, the TGI in the experiment with ACHN renal, in the experiment with OVCAR-5 ovarian, with RPMI-8226 leukemia, in the experiment on KM12 colon, in the experiment on OVCAR-4 ovarian and in the experiment with MALME-3M melanoma was greater than 100 µM each time. The TGI in the experiment with UACC-62 melanoma, in the experiment on LOX IMVI melanoma and with K-562 leukemia was greater than 100 µM each time.
In the case of `CNS(=O)(=O)c1ccccc1C(=N)c1ccccc1`, the TGI with ACHN renal, in the experiment with OVCAR-5 ovarian, with RPMI-8226 leukemia, in the experiment on KM12 colon, in the experiment on OVCAR-4 ovarian and in the experiment with MALME-3M melanoma was greater than 100 µM each time. The TGI in the experiment on UACC-62 melanoma, with LOX IMVI melanoma, with K-562 leukemia and in the experiment with HOP-62 NSCLC was greater than 100 µM throughout.
For `CC(C)[C@](O)(C(=O)OCC1=CC[N+]2([O-])CC[C@@H](O)[C@@H]12)[C@H](C)O` (some centres not stated), the TGI in the experiment with ACHN renal, in the experiment on OVCAR-5 ovarian, in the experiment with RPMI-8226 leukemia, in the experiment with KM12 colon, in the experiment with OVCAR-4 ovarian and in the experiment on MALME-3M melanoma was greater than 10000 µM each time. In addition, the TGI with UACC-62 melanoma is 9920 µM; in the experiment on LOX IMVI melanoma, greater than 10000 µM; in the experiment on K-562 leukemia, greater than 10000 µM; with HOP-62 NSCLC, greater than 3980 µM.
In the case of `[C-]#[O+].[C-]#[O+].[Ir].[O-]c1ccc2ccccc2c1N=Nc1ccccc1`, the TGI with ACHN renal is 13.8 µM; with OVCAR-5 ovarian it was 38.3 µM; in the experiment on RPMI-8226 leukemia, 45.2 µM; in the experiment with KM12 colon it was greater than 44.1 µM; with OVCAR-4 ovarian, 24.7 µM; in the experiment with MALME-3M melanoma it was 13 µM. The TGI was 29.2 µM in the experiment with UACC-62 melanoma, 24.6 µM in the experiment with LOX IMVI melanoma, 80.4 µM with K-562 leukemia and greater than 100 µM with HOP-62 NSCLC. Moreover, in the experiment on KM12 colon, the GI50 was 13 µM.
`CN1C(=O)N(C)C2C1NN=c1s/c(=C\c3c[nH]c4ccccc34)c(=O)n12` (configuration not stated): the GI50 with ACHN renal was 0.0754 µM; in the experiment on OVCAR-5 ovarian, 0.0731 µM; with RPMI-8226 leukemia, 0.0346 µM; in the experiment on KM12 colon, 0.04 µM; with MALME-3M melanoma, 0.0689 µM; in the experiment on UACC-62 melanoma it was 0.0464 µM. Also, the GI50 with LOX IMVI melanoma was 0.0518 µM; in the experiment with K-562 leukemia, 0.0312 µM; with HOP-62 NSCLC, 0.046 µM. The TGI in the experiment on ACHN renal was greater than 100 µM; in the experiment on OVCAR-5 ovarian, greater than 100 µM; in the experiment on RPMI-8226 leukemia, 1.55 µM; in the experiment with KM12 colon, greater than 100 µM; in the experiment with OVCAR-4 ovarian, greater than 100 µM; with MALME-3M melanoma, greater than 100 µM. The TGI in the experiment with UACC-62 melanoma is greater than 100 µM; with LOX IMVI melanoma, greater than 100 µM; in the experiment on K-562 leukemia, greater than 100 µM; with HOP-62 NSCLC, 52.6 µM.
Turning to `CC(N)(Cc1c[nH]c2ccccc12)C(=O)O` (configuration not stated), the GI50 in the experiment on ACHN renal is greater than 2500 µM; in the experiment with OVCAR-5 ovarian, greater than 2500 µM; in the experiment on RPMI-8226 leukemia, greater than 2500 µM; in the experiment with KM12 colon it was greater than 2500 µM; in the experiment with OVCAR-4 ovarian, greater than 2500 µM; in the experiment on MALME-3M melanoma, 522 µM. The GI50 with UACC-62 melanoma, with LOX IMVI melanoma, in the experiment on K-562 leukemia and in the experiment on HOP-62 NSCLC was greater than 2500 µM each time. For the same compound, the TGI in the experiment with ACHN renal, in the experiment on OVCAR-5 ovarian, in the experiment with RPMI-8226 leukemia, in the experiment with KM12 colon, with OVCAR-4 ovarian and in the experiment with MALME-3M melanoma was greater than 2500 µM in each case. Moreover, the TGI in the experiment with UACC-62 melanoma, in the experiment with LOX IMVI melanoma, in the experiment with K-562 leukemia and in the experiment with HOP-62 NSCLC was greater than 2500 µM throughout.
Turning to `Fc1c[c-]c(-c2ccccn2)c(F)c1.[CH3-].[Pt+2].c1ccc([PH+](c2ccccc2)c2ccccn2)cc1`, the GI50 was 1.2 µM in the experiment with ACHN renal; 1.72 µM in the experiment on OVCAR-5 ovarian; 0.412 µM with RPMI-8226 leukemia; 2.53 µM with KM12 colon; 1.57 µM with OVCAR-4 ovarian; 1.35 µM in the experiment on MALME-3M melanoma. Further, the GI50 in the experiment on LOX IMVI melanoma is 1.28 µM; with K-562 leukemia, 1.78 µM; in the experiment with HOP-62 NSCLC, 4.16 µM. The TGI is 2.49 µM in the experiment on ACHN renal; 3.63 µM in the experiment with OVCAR-5 ovarian; 4.44 µM in the experiment on RPMI-8226 leukemia; 6.49 µM in the experiment with KM12 colon; 7.06 µM with OVCAR-4 ovarian; 2.81 µM in the experiment on MALME-3M melanoma. The TGI in the experiment on LOX IMVI melanoma is 2.69 µM; in the experiment with K-562 leukemia, greater than 100 µM; with HOP-62 NSCLC, 44.2 µM.
